Experimental data published in patent US11000033B2, “Ketone or oxime compound, and herbicide” (NISSAN CHEMICAL CORPORATION, priority 2014, dated 2021).

What was measured:
Type in all cases: in vivo
[1] = system: Apera spica-venti; experiment: Test Example 5: herbicidal effect by foliage application, plastic box (symbol L); settings: 320 g/ha, 3 weeks after application
Summary of the method: (§1)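 Herbicide, formulated as an emulsion and diluted in water, is sprayed onto the aerial parts of 14-day seedlings. These were grown at 25° C. to 30° C. in sterilized diluvial soil; effects are graded after 3 weeks.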

[2] = system: Veronica persica; experiment: Test Example 4: herbicidal effect by soil treatment (symbol R); settings: application herbicide amount 320 g/ha
Summary of the method: (§2)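 Seeds were sown in sterilized diluvial soil, covered with about 1.5 cm of soil, and the soil surface was sprayed with a water-diluted emulsion of the compound at a predetermined rate. Plants grew in a greenhouse at 25° C. to 30° C.; effects were scored visually 3 weeks after application.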

[3] = system: Galium spurium; experiment: Test Example 5: herbicidal effect by foliage application, plastic box (symbol Q); settings: 320 g/ha, 3 weeks after application
Summary of the method: as §1

[4] = system: Apera spica-venti; experiment: Test Example 4: herbicidal effect by soil treatment (symbol L); settings: application herbicide amount 320 g/ha
Summary of the method: as §2

[5] = system: transplanted rice plant; experiment: Test Example 1: effect on crop, application before weed generation in submerged conditions (symbol a); settings: application herbicide amount 320 g/ha
Summary of the method: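 Rice at 2.5 leaf stage transplanted into submerged soil (4 cm depth) sown with three weed species; herbicide applied before weed emergence.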

[6] = system: Galium spurium; experiment: Test Example 4: herbicidal effect by soil treatment (symbol Q); settings: application herbicide amount 320 g/ha
Summary of the method: as §2

[7] = system: Stellaria media; experiment: Test Example 4: herbicidal effect by soil treatment (symbol P); settings: application herbicide amount 320 g/ha
Summary of the method: as §2

[8] = system: Setaria viridis; experiment: Test Example 4: herbicidal effect by soil treatment (symbol G); settings: application herbicide amount 320 g/ha
Summary of the method: as §2

[9] = system: directly sowed rice plant; experiment: Test Example 3: effect on crop by foliage application, Wagner pot (symbol b); settings: application herbicide amount 320 g/ha, Table 24
Summary of the method: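 Greenhouse culture at 25–30 °C of seeded rice, Cyperus difformis, Leptochloa chinensis and Echinochloa crus-galli var. crus-galli, in alluvial soil held under 0.1–0.5 cm of water in a Wagner pot.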

[10] = system: Digitaria ciliaris; experiment: Test Example 5: herbicidal effect by foliage application, plastic box (symbol F); settings: 320 g/ha, 3 weeks after application
Summary of the method: as §1

[11] = system: Echinochloa oryzacola Vasing.; experiment: Test Example 1: herbicidal activity, application before weed generation in submerged conditions (symbol A); settings: application herbicide amount 320 g/ha
Summary of the method: (§3)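 Mixed weed seeds sown in alluvial soil under 4 cm of water, with rice seedlings at the 2.5-leaf stage added. Same-day treatment: emulsion diluted to a set herbicide amount onto the water. Three weeks at 25–30 °C, then graded on a six-step scale.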

[12] = system: Abutilon theophrasti; experiment: Test Example 4: herbicidal effect by soil treatment (symbol M); settings: application herbicide amount 320 g/ha
Summary of the method: as §2

[13] = system: Lolium multiflorum Lam.; experiment: Test Example 5: herbicidal effect by foliage application, plastic box (symbol K); settings: 320 g/ha, 3 weeks after application
Summary of the method: as §1

[14] = system: Monochoria vaginalis; experiment: Test Example 1: herbicidal activity, application before weed generation in submerged conditions (symbol C); settings: application herbicide amount 320 g/ha
Summary of the method: as §3

[15] = system: rapeseed; experiment: Test Example 5: effect on crop by foliage application, plastic box (symbol g); settings: 320 g/ha, 3 weeks after application
Summary of the method: (§4)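 Greenhouse test at 25° C. to 30° C. Seeds of crops and weeds were spot-sown in boxes of sterilized diluvial soil under roughly 1.5 cm soil cover, then grown for foliage treatment.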

[16] = system: wheat; experiment: Test Example 5: effect on crop by foliage application, plastic box (symbol e); settings: 320 g/ha, 3 weeks after application
Summary of the method: as §4

[17] = system: Avena fatua; experiment: Test Example 5: herbicidal effect by foliage application, plastic box (symbol I); settings: 320 g/ha, 3 weeks after application
Summary of the method: as §1

[18] = system: Scirpus juncoides; experiment: Test Example 1: herbicidal activity, application before weed generation in submerged conditions (symbol B); settings: application herbicide amount 320 g/ha
Summary of the method: as §3

Compound | L: Apera spica-venti, herbicidal effect grade [1] | Herbicidal effect grade, R: Veronica persica [2] | Q: Galium spurium, herbicidal effect grade [3] | Herbicidal effect grade, L: Apera spica-venti [4] | a (transplanted rice plant) effect on crop grade [5] | Herbicidal effect grade, Q: Galium spurium [6] | Herbicidal effect grade, P: Stellaria media [7] | Herbicidal effect grade, G: Setaria viridis [8] | b (directly sowed rice plant) effect on crop grade [9] | F: Digitaria ciliaris, herbicidal effect grade [10] | A (Echinochloa oryzacola Vasing.) herbicidal effect grade [11] | Herbicidal effect grade, M: Abutilon theophrasti [12] | K: Lolium multiflorum Lam., herbicidal effect grade [13] | C (Monochoria vaginalis) herbicidal effect grade [14] | g: rapeseed, effect on crop grade [15] | e: wheat, effect on crop grade [16] | I: Avena fatua, herbicidal effect grade [17] | B (Scirpus juncoides) herbicidal effect grade [18]
Cc1cc(-n2cc(Cl)cn2)cc(C)c1C1=C(O)CC(CC(=NOCC(F)(F)F)C(C)C)C1=O (stereo not drawn) [9-014] | 3 (Herbicidal ratio of 40% or higher and lower than 70%) | 0 (Herbicidal ratio of 5% or lower (almost no effect)) | 0 (Herbicidal ratio of 5% or lower (almost no effect)) | 0 (Herbicidal ratio of 5% or lower (almost no effect)) | 5 (Herbicidal ratio of 90% or more (almost completely withered)) | 0 (Herbicidal ratio of 5% or lower (almost no effect)) | 0 (Herbicidal ratio of 5% or lower (almost no effect)) | 3 (Herbicidal ratio of 40% or higher and lower than 70%) | 5 (Herbicidal ratio of 90% or more (almost completely withered)) | 5 (Herbicidal ratio of 90% or more (almost completely withered)) | 5 (Herbicidal ratio of 90% or more (almost completely withered)) | 0 (Herbicidal ratio of 5% or lower (almost no effect)) | 4 (Herbicidal ratio of 70% or higher and lower than 90%) | 2 (Herbicidal ratio of 20% or higher and lower than 40%) | 2 (Herbicidal ratio of 20% or higher and lower than 40%) | 1 (Herbicidal ratio of 5% or higher and lower than 20%) | 4 (Herbicidal ratio of 70% or higher and lower than 90%) | 4 (Herbicidal ratio of 70% or higher and lower than 90%)
CC#Cc1cc(C)c(C2=C(O)CC(CC(=NOCCOC)C(C)C)C2=O)c(C)c1 (stereo not drawn) [9-023] | 5 (Herbicidal ratio of 90% or more (almost completely withered)) | 0 (Herbicidal ratio of 5% or lower (almost no effect)) | 0 (Herbicidal ratio of 5% or lower (almost no effect)) | 5 (Herbicidal ratio of 90% or more (almost completely withered)) | 5 (Herbicidal ratio of 90% or more (almost completely withered)) | 0 (Herbicidal ratio of 5% or lower (almost no effect)) | 0 (Herbicidal ratio of 5% or lower (almost no effect)) | 5 (Herbicidal ratio of 90% or more (almost completely withered)) | 5 (Herbicidal ratio of 90% or more (almost completely withered)) | 5 (Herbicidal ratio of 90% or more (almost completely withered)) | 5 (Herbicidal ratio of 90% or more (almost completely withered)) | 0 (Herbicidal ratio of 5% or lower (almost no effect)) | 5 (Herbicidal ratio of 90% or more (almost completely withered)) | 4 (Herbicidal ratio of 70% or higher and lower than 90%) | 5 (Herbicidal ratio of 90% or more (almost completely withered)) | 1 (Herbicidal ratio of 5% or higher and lower than 20%) | 4 (Herbicidal ratio of 70% or higher and lower than 90%) | 5 (Herbicidal ratio of 90% or more (almost completely withered))
CC(CC1CC(O)=C(c2c(C)cc(-c3ccc(Cl)cc3)cc2C)C1=O)=NOCC(F)(F)F (stereo not drawn) [9-024] | 5 (Herbicidal ratio of 90% or more (almost completely withered)) | 4 (Herbicidal ratio of 70% or higher and lower than 90%) | 4 (Herbicidal ratio of 70% or higher and lower than 90%) | 5 (Herbicidal ratio of 90% or more (almost completely withered)) | 5 (Herbicidal ratio of 90% or more (almost completely withered)) | 0 (Herbicidal ratio of 5% or lower (almost no effect)) | 4 (Herbicidal ratio of 70% or higher and lower than 90%) | 5 (Herbicidal ratio of 90% or more (almost completely withered)) | 5 (Herbicidal ratio of 90% or more (almost completely withered)) | 5 (Herbicidal ratio of 90% or more (almost completely withered)) | 5 (Herbicidal ratio of 90% or more (almost completely withered)) | 0 (Herbicidal ratio of 5% or lower (almost no effect)) | 5 (Herbicidal ratio of 90% or more (almost completely withered)) | 2 (Herbicidal ratio of 20% or higher and lower than 40%) | 4 (Herbicidal ratio of 70% or higher and lower than 90%) | 3 (Herbicidal ratio of 40% or higher and lower than 70%) | 5 (Herbicidal ratio of 90% or more (almost completely withered)) | 4 (Herbicidal ratio of 70% or higher and lower than 90%)
